Experimental data as given in the NIST ThermoML archive (doi:10.1016/j.jct.2013.08.010).
± gives the expanded uncertainty stated by the source.

Assay: mn = molality of the nth substance listed, in mol/kg
Conditions: 101 kPa, Liquid; for speed of sound: Sing-around technique in a fixed-path interferometer; for mass density: Vibrating tube method

NCC(=O)O [2-aminoacetic acid] + O
Conditions | mass density, 288.15 K [kg/m3] | mass density, 298.15 K [kg/m3] | mass density, 308.15 K [kg/m3] | mass density, 318.15 K [kg/m3] | speed of sound, 288.15 K [m/s] | speed of sound, 298.15 K [m/s] | speed of sound, 308.15 K [m/s] | speed of sound, 318.15 K [m/s]
m1 = 0.01207 | 999.51 ± 0.16 | 997.439 ± 0.16 | 994.412 ± 0.16 | 990.513 ± 0.16 | 1467.2 ± 2.2 | 1497.7 ± 2.2 | 1520 ± 2.2 | 1537.2 ± 2.2
m1 = 0.0523 | 1000.84 ± 0.16 | 998.74 ± 0.16 | – | 991.747 ± 0.16 | 1470.1 ± 2.2 | 1500.1 ± 2.2 | 1522.9 ± 2.2 | 1538.9 ± 2.2
m1 = 0.1037 | 1002.52 ± 0.16 | 1000.39 ± 0.16 | 997.281 ± 0.16 | 993.309 ± 0.16 | 1472.3 ± 2.2 | 1502.3 ± 2.2 | 1524.7 ± 2.2 | 1541.1 ± 2.2
m1 = 0.2037 | 1005.77 ± 0.16 | 1003.57 ± 0.16 | 1000.37 ± 0.16 | 996.317 ± 0.16 | 1477.8 ± 2.2 | 1507.2 ± 2.2 | 1529.7 ± 2.2 | 1545.8 ± 2.2
m1 = 0.3068 | 1009.07 ± 0.16 | 1006.8 ± 0.16 | 1003.51 ± 0.16 | – | 1483.4 ± 2.2 | 1512.4 ± 2.2 | 1534.6 ± 2.2 | 1551.4 ± 2.2
m1 = 0.4124 | 1012.4 ± 0.17 | 1010.06 ± 0.17 | 1006.68 ± 0.16 | 1002.46 ± 0.16 | 1488.7 ± 2.2 | 1517.8 ± 2.2 | 1539.7 ± 2.2 | 1555.4 ± 2.2
m1 = 0.5028 | 1015.22 ± 0.17 | 1012.82 ± 0.17 | 1009.36 ± 0.17 | 1005.06 ± 0.16 | 1494.5 ± 2.2 | 1523 ± 2.2 | 1543.8 ± 2.2 | 1560.2 ± 2.2
m1 = 0.6058 | 1018.38 ± 0.17 | 1015.9 ± 0.17 | 1012.35 ± 0.17 | 1007.97 ± 0.17 | 1499.2 ± 2.2 | 1527.3 ± 2.2 | 1548.7 ± 2.2 | 1564.1 ± 2.2
m1 = 0.6829 | 1020.71 ± 0.17 | 1018.19 ± 0.17 | 1014.55 ± 0.17 | 1010.1 ± 0.17 | 1503.4 ± 2.2 | 1531.3 ± 2.2 | 1552.5 ± 2.2 | 1567.7 ± 2.2
m1 = 0.82 | 1024.83 ± 0.17 | 1022.23 ± 0.17 | 1018.45 ± 0.17 | 1013.89 ± 0.17 | 1510.2 ± 2.2 | 1537.7 ± 2.2 | 1558.6 ± 2.2 | 1573.5 ± 2.2

C[C@H](N)C(=O)O [(S)-2-aminopropanoic acid] + O
Conditions | mass density, 288.15 K [kg/m3] | mass density, 298.15 K [kg/m3] | mass density, 308.15 K [kg/m3] | mass density, 318.15 K [kg/m3] | speed of sound, 288.15 K [m/s] | speed of sound, 298.15 K [m/s] | speed of sound, 308.15 K [m/s] | speed of sound, 318.15 K [m/s]
m1 = 0.00939 | 999.393 ± 0.16 | 997.32 ± 0.16 | 994.294 ± 0.16 | 990.395 ± 0.16 | 1467.6 ± 2.2 | 1497.9 ± 2.2 | 1520.8 ± 2.2 | 1537 ± 2.2
m1 = 0.04689 | 1000.52 ± 0.16 | 998.405 ± 0.16 | 995.339 ± 0.16 | 991.404 ± 0.16 | 1469.9 ± 2.2 | 1499.8 ± 2.2 | 1522.7 ± 2.2 | 1539.2 ± 2.2
m1 = 0.09896 | 1002.07 ± 0.16 | 999.9 ± 0.16 | 996.777 ± 0.16 | 992.791 ± 0.16 | 1472.8 ± 2.2 | 1502.8 ± 2.2 | 1525.5 ± 2.2 | 1542 ± 2.2
m1 = 0.2003 | 1005.04 ± 0.16 | 1002.78 ± 0.16 | 999.545 ± 0.16 | 995.459 ± 0.16 | 1480.3 ± 2.2 | 1509.6 ± 2.2 | 1531.8 ± 2.2 | 1547.9 ± 2.2
m1 = 0.2979 | 1007.86 ± 0.16 | 1005.5 ± 0.16 | 1002.16 ± 0.16 | 997.981 ± 0.16 | 1487.3 ± 2.2 | 1515.9 ± 2.2 | 1537.9 ± 2.2 | 1553.2 ± 2.2
m1 = 0.3997 | 1010.74 ± 0.17 | 1008.28 ± 0.16 | 1004.85 ± 0.16 | 1000.56 ± 0.16 | 1494.3 ± 2.2 | 1522.7 ± 2.2 | 1544 ± 2.2 | 1558.7 ± 2.2
m1 = 0.4941 | 1013.38 ± 0.17 | 1010.81 ± 0.17 | 1007.28 ± 0.16 | 1002.91 ± 0.16 | 1500.3 ± 2.2 | 1528 ± 2.2 | 1549 ± 2.2 | 1564.1 ± 2.2
m1 = 0.6099 | 1016.55 ± 0.17 | 1013.87 ± 0.17 | 1010.22 ± 0.17 | 1005.75 ± 0.16 | 1509.5 ± 2.2 | 1536.7 ± 2.2 | 1556.8 ± 2.2 | 1571.4 ± 2.2
m1 = 0.6973 | 1018.88 ± 0.17 | 1016.12 ± 0.17 | 1012.38 ± 0.17 | 1007.84 ± 0.17 | 1513.3 ± 2.2 | 1540.4 ± 2.2 | 1560.7 ± 2.2 | 1574.7 ± 2.2
m1 = 0.7978 | 1021.55 ± 0.17 | 1018.68 ± 0.17 | 1014.85 ± 0.17 | 1010.19 ± 0.17 | 1520 ± 2.2 | 1546.2 ± 2.2 | 1566 ± 2.2 | 1580.9 ± 2.2

CC(C)[C@H](N)C(=O)O [L-valine] + O
Conditions | mass density, 288.15 K [kg/m3] | mass density, 298.15 K [kg/m3] | mass density, 308.15 K [kg/m3] | mass density, 318.15 K [kg/m3] | speed of sound, 288.15 K [m/s] | speed of sound, 298.15 K [m/s] | speed of sound, 308.15 K [m/s] | speed of sound, 318.15 K [m/s]
m1 = 0.00555 | 999.264 ± 0.16 | 997.195 ± 0.16 | 994.174 ± 0.16 | 990.28 ± 0.16 | 1467.4 ± 2.2 | 1497.5 ± 2.2 | 1520.4 ± 2.2 | 1537.1 ± 2.2
m1 = 0.02398 | 999.773 ± 0.16 | 997.685 ± 0.16 | 994.647 ± 0.16 | 990.74 ± 0.16 | 1467.3 ± 2.2 | 1497.4 ± 2.2 | 1520.4 ± 2.2 | 1537.4 ± 2.2
m1 = 0.03504 | 1000.08 ± 0.16 | 997.977 ± 0.16 | 994.929 ± 0.16 | 991.014 ± 0.16 | 1469.7 ± 2.2 | 1499.6 ± 2.2 | 1522 ± 2.2 | 1538.7 ± 2.2
m1 = 0.05824 | 1000.71 ± 0.16 | 998.588 ± 0.16 | 995.518 ± 0.16 | 991.588 ± 0.16 | 1469.6 ± 2.2 | 1499.7 ± 2.2 | 1522.6 ± 2.2 | 1539 ± 2.2
m1 = 0.07873 | 1001.27 ± 0.16 | 999.124 ± 0.16 | 996.034 ± 0.16 | 992.09 ± 0.16 | 1472.8 ± 2.2 | 1502.4 ± 2.2 | 1525 ± 2.2 | 1541.2 ± 2.2
m1 = 0.09938 | 1001.83 ± 0.16 | 999.658 ± 0.16 | 996.551 ± 0.16 | 992.593 ± 0.16 | 1474.8 ± 2.2 | 1504.4 ± 2.2 | 1526.9 ± 2.2 | 1542.7 ± 2.2
m1 = 0.2068 | 1004.69 ± 0.16 | 1002.41 ± 0.16 | 999.213 ± 0.16 | 995.181 ± 0.16 | 1477 ± 2.2 | 1506.2 ± 2.2 | 1528.2 ± 2.2 | 1544.4 ± 2.2
m1 = 0.2992 | 1007.1 ± 0.16 | 1004.73 ± 0.16 | 1001.45 ± 0.16 | 997.351 ± 0.16 | 1488.4 ± 2.2 | 1516.6 ± 2.2 | 1537.8 ± 2.2 | 1552.5 ± 2.2
m1 = 0.4017 | 1009.7 ± 0.17 | 1007.24 ± 0.16 | 1003.87 ± 0.16 | 999.709 ± 0.16 | 1497.2 ± 2.2 | 1524.8 ± 2.2 | 1545.2 ± 2.2 | 1560.4 ± 2.2
